# Measured values as given in US10597388B2, “Pyridazinone herbicides” (FMC CORPORATION, priority 2014, dated 2020).
# Assays:
# Test in all cases: Test C greenhouse herbicide test, pre- and postemergence
# Format in all cases: in vivo
# [1] = test system: barnyardgrass (Echinochloa crus-galli)
# Outline: (§1)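 Pre- and postemergence greenhouse screen; values are visual control ratings, 0 meaning no effect and 100 complete kill, assigned relative to untreated plants after 13 to 15 d.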
# [2] = test system: blackgrass (Alopecurus myosuroides)
# Outline: as §1
# corn (Zea mays) = test system: corn (Zea mays)
# Outline: as §1
# [3] = test system: crabgrass, large (large crabgrass, Digitaria sanguinalis)
# Outline: as §1
# [4] = test system: foxtail, giant (giant foxtail, Setaria faberii)
# Outline: as §1
# [5] = test system: galium (catchweed bedstraw, Galium aparine)
# Outline: as §1
# [6] = test system: lambsquarters (Chenopodium album)
# Outline: as §1
# [7] = test system: morningglory (Ipomoea coccinea)
# Outline: as §1
# [8] = test system: nutsedge, yellow (yellow nutsedge, Cyperus esculentus)
# Outline: as §1
# [9] = test system: oilseed rape (Brassica napus)
# Outline: as §1
# [10] = test system: ragweed (common ragweed, Ambrosia elatior)
# Outline: as §1
# [11] = test system: ryegrass, Italian (Italian ryegrass, Lolium multiflorum)
# Outline: as §1
# soybean (Glycine max) = test system: soybean (Glycine max)
# Outline: as §1
# [12] = test system: velvetleaf (Abutilon theophrasti)
# Outline: as §1
# [13] = test system: waterhemp (common waterhemp, Amaranthus rudis)
# Outline: as §1
# [14] = Postemergence, 8 g ai/ha, scale 0 to 100 (0 no effect, 100 complete control)
# [15] = Postemergence, 16 g ai/ha, scale 0 to 100 (0 no effect, 100 complete control)
# [16] = Postemergence, 31 g ai/ha, 0 to 100 scale (0 no effect, 100 complete control)
# [17] = Preemergence, 8 g ai/ha, scale 0 to 100, 0 is no effect, 100 is complete control
# [18] = Preemergence, 16 g ai/ha, scale 0 to 100, 0 is no effect, 100 is complete control
# [19] = Preemergence, 31 g ai/ha, scale 0 to 100, 0 is no effect, 100 is complete control
# [20] = Preemergence, 62 g ai/ha, scale 0 to 100, 0 is no effect, 100 is complete control
# [21] = postemergence, 62 g ai/ha, scale 0 to 100, 0 no effect, 100 complete control
smiles,measurement,setting,value
Cc1nn(C)c(=O)c(-c2c(C)sc3c(C)cc(Cl)cc23)c1O [Compound 35],"Plant response rating, Barnyardgrass",[1]; [14],10
same,"Plant response rating, Barnyardgrass",[1]; [15],10
same,Barnyardgrass plant response rating,[1]; [16],20
same,"Plant response rating, Barnyardgrass",[1]; [17],0
same,"Plant response rating, Barnyardgrass",[1]; [18],5
same,"Plant response rating, Barnyardgrass",[1]; [19],5
same,"Plant response rating, Barnyardgrass",[1]; [20],25
same,Barnyardgrass plant response rating,[1]; [21],20
same,"Plant response rating, Blackgrass",[2]; [14],0
same,"Plant response rating, Blackgrass",[2]; [15],5
same,Blackgrass plant response rating,[2]; [16],15
same,"Plant response rating, Blackgrass",[2]; [17],5
same,"Plant response rating, Blackgrass",[2]; [18],40
same,"Plant response rating, Blackgrass",[2]; [19],50
same,"Plant response rating, Blackgrass",[2]; [20],55
same,Blackgrass plant response rating,[2]; [21],45
same,"Plant response rating, Corn",corn (Zea mays); [14],0
same,"Plant response rating, Corn",corn (Zea mays); [15],0
same,Corn plant response rating,corn (Zea mays); [16],5
same,"Plant response rating, Corn",corn (Zea mays); [17],0
same,"Plant response rating, Corn",corn (Zea mays); [18],0
same,"Plant response rating, Corn",corn (Zea mays); [19],0
same,"Plant response rating, Corn",corn (Zea mays); [20],0
same,Corn plant response rating,corn (Zea mays); [21],5
same,"Plant response rating, Crabgrass, Large",[3]; [14],5
same,"Plant response rating, Crabgrass, Large",[3]; [15],5
same,"Crabgrass, Large plant response rating",[3]; [16],20
same,"Plant response rating, Crabgrass, Large",[3]; [17],0
same,"Plant response rating, Crabgrass, Large",[3]; [18],0
same,"Plant response rating, Crabgrass, Large",[3]; [19],5
same,"Plant response rating, Crabgrass, Large",[3]; [20],5
same,"Crabgrass, Large plant response rating",[3]; [21],20
same,"Plant response rating, Foxtail, Giant",[4]; [14],25
same,"Plant response rating, Foxtail, Giant",[4]; [15],35
same,"Foxtail, Giant plant response rating",[4]; [16],50
same,"Plant response rating, Foxtail, Giant",[4]; [17],5
same,"Plant response rating, Foxtail, Giant",[4]; [18],25
same,"Plant response rating, Foxtail, Giant",[4]; [19],60
same,"Plant response rating, Foxtail, Giant",[4]; [20],85
same,"Foxtail, Giant plant response rating",[4]; [21],75
same,"Plant response rating, Galium",[5]; [14],90
same,"Plant response rating, Galium",[5]; [15],90
same,Galium plant response rating,[5]; [16],90
same,"Plant response rating, Galium",[5]; [18],90
same,"Plant response rating, Galium",[5]; [19],90
same,"Plant response rating, Galium",[5]; [20],95
same,Galium plant response rating,[5]; [21],95
same,"Plant response rating, Lambsquarters",[6]; [14],35
same,"Plant response rating, Lambsquarters",[6]; [15],75
same,Lambsquarters plant response rating,[6]; [16],80
same,"Plant response rating, Lambsquarters",[6]; [18],5
same,"Plant response rating, Lambsquarters",[6]; [19],20
same,"Plant response rating, Lambsquarters",[6]; [20],100
same,Lambsquarters plant response rating,[6]; [21],70
same,"Plant response rating, Morningglory",[7]; [14],100
same,"Plant response rating, Morningglory",[7]; [15],100
same,Morningglory plant response rating,[7]; [16],100
same,"Plant response rating, Morningglory",[7]; [18],25
same,"Plant response rating, Morningglory",[7]; [19],25
same,"Plant response rating, Morningglory",[7]; [20],98
same,Morningglory plant response rating,[7]; [21],100
same,"Plant response rating, Nutsedge, Yellow",[8]; [14],45
same,"Plant response rating, Nutsedge, Yellow",[8]; [15],60
same,"Nutsedge, Yellow plant response rating",[8]; [16],75
same,"Plant response rating, Nutsedge, Yellow",[8]; [18],20
same,"Plant response rating, Nutsedge, Yellow",[8]; [19],20
same,"Plant response rating, Nutsedge, Yellow",[8]; [20],40
same,"Nutsedge, Yellow plant response rating",[8]; [21],85
same,"Plant response rating, Oilseed Rape",[9]; [14],0
same,"Plant response rating, Oilseed Rape",[9]; [15],0
same,"Plant response rating, Oilseed Rape",[9]; [18],5
same,"Plant response rating, Oilseed Rape",[9]; [19],90
same,"Plant response rating, Oilseed Rape",[9]; [20],90
same,Oilseed Rape plant response rating,[9]; [21],10
same,"Plant response rating, Ragweed",[10]; [14],0
same,"Plant response rating, Ragweed",[10]; [15],0
same,Ragweed plant response rating,[10]; [16],25
same,"Plant response rating, Ragweed",[10]; [18],0
same,"Plant response rating, Ragweed",[10]; [19],5
same,"Plant response rating, Ragweed",[10]; [20],40
same,Ragweed plant response rating,[10]; [21],40
same,"Plant response rating, Ryegrass, Italian",[11]; [14],10
same,"Plant response rating, Ryegrass, Italian",[11]; [15],30
same,"Ryegrass, Italian plant response rating",[11]; [16],35
same,"Plant response rating, Ryegrass, Italian",[11]; [18],50
same,"Plant response rating, Ryegrass, Italian",[11]; [19],65
same,"Plant response rating, Ryegrass, Italian",[11]; [20],70
same,"Ryegrass, Italian plant response rating",[11]; [21],55
same,"Plant response rating, Soybean",soybean (Glycine max); [14],0
same,"Plant response rating, Soybean",soybean (Glycine max); [15],0
same,Soybean plant response rating,soybean (Glycine max); [16],0
same,"Plant response rating, Soybean",soybean (Glycine max); [18],0
same,"Plant response rating, Soybean",soybean (Glycine max); [19],0
same,"Plant response rating, Soybean",soybean (Glycine max); [20],0
same,Soybean plant response rating,soybean (Glycine max); [21],5
same,"Plant response rating, Velvetleaf",[12]; [14],60
same,"Plant response rating, Velvetleaf",[12]; [15],75
same,Velvetleaf plant response rating,[12]; [16],100
same,"Plant response rating, Velvetleaf",[12]; [18],0
same,"Plant response rating, Velvetleaf",[12]; [19],40
same,"Plant response rating, Velvetleaf",[12]; [20],85
same,Velvetleaf plant response rating,[12]; [21],100
same,"Plant response rating, Waterhemp",[13]; [14],0
same,"Plant response rating, Waterhemp",[13]; [15],30
same,Waterhemp plant response rating,[13]; [16],25
same,"Plant response rating, Waterhemp",[13]; [18],40
same,"Plant response rating, Waterhemp",[13]; [19],40
same,"Plant response rating, Waterhemp",[13]; [20],50
same,Waterhemp plant response rating,[13]; [21],45
